Read-outs that look alike come from different tables or passages of the source.
Target: T1, glutathione S-transferase (GST)-fused full-length human Syk protein (Homo sapiens, UniProt P43405)
T1 construct: (GST)-fused full-length human Syk protein; GST (glutathione S-transferase); purchased Carna Biosciences
Experiment: Syk enzyme assay
Format: biochemical
Procedure, shortened: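 GST-tagged full-length human Syk (baculovirus) preincubated with compound 15 min at room temperature (pH 7.0, 10 mM MgCl2), then reacted 40 min with 0.4 μM biotinylated peptide substrate and 27 μM ATP (final). Phosphorylation read by HTRF (615/665 nm) after EDTA stop; IC50 reported.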

[1] = Syk enzyme assay, Test Example 1, read-out: IC50 of Syk-inhibitory activity

SMILES | IC50 (read-out: Syk-inhibitory activity (IC50)) [nM] | IC50 [1] [nM]
Cn1ncc2ccc(Nc3nc(NCCN)c(F)cc3C(N)=O)cc21 [Example 6-27, 6-((2-aminoethyl)amino)-5-fluoro-2-((1-methyl-1H-indazol-6-yl)amino)nicotinamide] | ≤ 1000 | 
CCNc1nc(Nc2ccc3ncsc3c2)c(C(N)=O)cc1F [Example 006-042, 2-((benzo[d]thiazol-6-yl)amino)-6-(ethylamino)-5-fluoronicotinamide] |  | 100 to 1000
NCCNc1nc(Nc2cncc(-c3ccccc3)c2)c(C(N)=O)cc1F [Example 006-089, 6-((2-aminoethyl)amino)-5-fluoro-2-((5-phenylpyridin-3-yl)amino)nicotinamide] |  | 10 to 50
Cn1cccc1-c1cncc(Nc2nc(NCCN)c(F)cc2C(N)=O)c1 [Example 006-090, 6-((2-aminoethyl)amino)-5-fluoro-2-((5-(1-methyl-1H-pyrrol-2-yl)pyridin-3-yl)amino)nicotinamide] |  | 100 to 1000
COc1cc(Nc2nc(N[C@H]3CCCC[C@H]3N)c(F)cc2C(N)=O)cc(OC)n1 [Example 006-115, 6-((1S,2R)-2-aminocyclohexylamino)-2-((2,6-dimethoxypyridin-4-yl)amino)-5-fluoronicotinamide] |  | 100 to 1000
Cc1cncc(Nc2nc(NC[C@@H](N)c3ccccc3)c(F)cc2C(N)=O)c1 [Example 006-118, (S)-6-((2-amino-2-phenylethyl)amino)-5-fluoro-2-((5-methylpyridin-3-yl)amino)nicotinamide] |  | 100 to 1000
NC(=O)c1cc(F)c(NC[C@@H](N)c2ccccc2)nc1Nc1cccc(-n2nccn2)c1 [Example 006-120, (S)-2-((3-(2H-1,2,3-triazol-2-yl)phenyl)amino)-6-((2-amino-2-phenylethyl)amino)-5-fluoronicotinamide] |  | 10 to 50
NC[C@H](Nc1nc(Nc2ccc3cccnc3c2)c(C(N)=O)cc1F)c1ccccc1 [Example 006-134, (R)-6-((2-amino-1-phenylethyl)amino)-5-fluoro-2-(quinolin-7-ylamino)nicotinamide] |  | 10 to 50
COc1cc(Nc2nc(N[C@H](c3ccccc3)[C@@H](N)c3ccccc3)c(F)cc2C(N)=O)ccn1 [Example 006-139] |  | 10 to 50
CC(C)(C)[C@H](CN)Nc1nc(Nc2ccc3ncccc3c2)c(C(N)=O)cc1F [Example 006-162, (R)-6-((1-amino-3,3-dimethylbutan-2-yl)amino)-5-fluoro-2-(quinolin-6-ylamino)nicotinamide] |  | 50 to 100
NCC1(Nc2nc(Nc3ccc4ncccc4c3)c(C(N)=O)cc2F)CC1 [Example 006-171, 6-((1-(aminomethyl)cyclopropyl)amino)-5-fluoro-2-((quinolin-6-yl)amino)nicotinamide] |  | < 10
NC(=O)c1cc(F)c(NC2CCCC2N)nc1Nc1ccc2ncccc2c1 (stereo not drawn) [Example 006-175, 6-((cis-2-aminocyclopentyl)amino)-5-fluoro-2-(quinolin-6-yl)amino)nicotinamide] |  | 10 to 50
CC(C)C[C@H](CN)Nc1nc(Nc2ccc(N3CCOCC3)nc2)c(C(N)=O)cc1F [Example 006-191, (R)-6-((1-amino-4-methylpentan-2-yl)amino)-5-fluoro-2-((6-morpholinopyridin-3-yl)amino)nicotinamide] |  | 10 to 50
CC(C)C[C@@H](CN)Nc1nc(Nc2ccc3ncccc3c2)c(C(N)=O)cc1F [Example 006-203, (S)-6-((1-amino-4-methylpentan-2-yl)amino)-5-fluoro-2-((quinolin-6-yl)amino)nicotinamide] |  | 100 to 1000
CC(C)C[C@H](CN)Nc1nc(Nc2cccc3cccnc23)c(C(N)=O)cc1F [Example 006-230, (R)-6-((1-amino-4-methylpentan-2-yl)amino)-5-fluoro-2-((quinolin-8-yl)amino)nicotinamide] |  | 10 to 50
CC(C)C[C@H](CN)Nc1nc(Nc2cncc3ccccc23)c(C(N)=O)cc1F [Example 006-231] |  | < 10
CC(C)C[C@H](CN)Nc1nc(Nc2cncc(-c3ccccc3)c2)c(C(N)=O)cc1F [Example 006-235, (R)-6-((1-amino-4-methylpentan-2-yl)amino)-5-fluoro-2-((5-phenylpyridin-3-yl)amino)nicotinamide] |  | 10 to 50
NC[C@@H](CC1CC1)Nc1nc(Nc2cncc(-c3ccccc3)c2)c(C(N)=O)cc1F [Example 006-283, (R)-6-((1-amino-3-cyclopropylpropan-2-yl)amino)-5-fluoro-2-((5-phenylpyridin-3-yl)amino)nicotinamide] |  | 10 to 50
CCCC[C@H](CN)Nc1nc(Nc2ccc3c(cnn3C)c2)c(C(N)=O)cc1F [Example 006-292, (R)-6-((1-aminohexan-2-yl)amino)-5-fluoro-2-((1-methyl-1H-indazol-5-yl)amino)nicotinamide] |  | < 10
NCC(CCC(F)(F)F)Nc1nc(Nc2cncc(-c3ccccc3)c2)c(C(N)=O)cc1F (centres unmarked) [Example 006-305, 6-((1-amino-5,5,5-trifluoropentan-2-yl)amino)-5-fluoro-2-((5-phenylpyridin-3-yl)amino)nicotinamide] |  | 10 to 50
COc1ccc(-c2cncc(Nc3nc(N[C@@H](CN)CC(C)C)c(F)cc3C(N)=O)c2)c(F)c1 [Example 006-319, (R)-6-((1-amino-4-methylpentan-2-yl)amino)-5-fluoro-2-((5-(2-fluoro-4-methoxyphenyl)pyridin-3-yl)amino)nicotinamide] |  | 10 to 50
COc1ccc(F)c(-c2cncc(Nc3nc(N[C@@H](CN)CC(C)C)c(F)cc3C(N)=O)c2)c1 [Example 006-320, (R)-6-((1-amino-4-methylpentan-2-yl)amino)-5-fluoro-2-((5-(2-fluoro-5-methoxyphenyl)pyridin-3-yl)amino)nicotinamide] |  | 50 to 100

The next lines start with the values.

IC50 (read-out: Syk-inhibitory activity (IC50)) [nM] | IC50 [1] [nM] | SMILES
 | 100 to 1000 | Cc1ccc(Nc2nc(NC[C@H](C)N)c(F)cc2C(N)=O)cn1 [Example 006-095, (S)-6-((2-aminopropyl)amino)-5-fluoro-2-((6-methylpyridin-3-yl)amino)nicotinamide]
 | 10 to 50 | CC[C@H](N)C(C)Nc1nc(Nc2ccc3ncccc3c2)c(C(N)=O)cc1F (some centres unmarked) [Example 006-149]
 | 10 to 50 | CCC(Nc1nc(Nc2ccc3ncccc3c2)c(C(N)=O)cc1F)[C@@H](N)CC (stereo partly drawn) [Example 006-150, 6-(((4S)-4-aminohexan-3-yl)amino)-5-fluoro-2-(quinolin-6-ylamino)nicotinamide]
 | 10 to 50 | CC[C@H](N)C(CC(C)C)Nc1nc(Nc2ccc3ncccc3c2)c(C(N)=O)cc1F (stereo partly drawn) [Example 006-151, 6-(((5S)-5-amino-2-methylheptan-4-yl)amino)-5-fluoro-2-(quinolin-6-ylamino)nicotinamide]
 | 10 to 50 | CC(C)C(Nc1nc(Nc2ccc3ncccc3c2)c(C(N)=O)cc1F)[C@H](C)N (stereo partly drawn) [Example 006-158, 6-(((2S)-2-amino-4-methylpentan-3-yl)amino)-5-fluoro-2-(quinolin-6-ylamino)nicotinamide]
 | 50 to 100 | CC[C@H](Nc1nc(Nc2ccc3ncccc3c2)c(C(N)=O)cc1F)[C@H](C)N [Example 006-179, 6-(((2S,3S)-2-aminopentan-3-yl)amino)-5-fluoro-2-((quinolin-6-yl)amino)nicotinamide]
 | 100 to 1000 | C[C@H](N)[C@H](C)Nc1nc(Nc2ccc3ncccc3c2)c(C(N)=O)cc1F [Example 006-181, 6-(((2S,3S)-3-aminobutan-2-yl)amino)-5-fluoro-2-((quinolin-6-yl)amino)nicotinamide]
 | 50 to 100 | C[C@H](N)[C@H](C)Nc1nc(Nc2ccc3ncccc3c2)c(C(N)=O)cc1F [Example 006-202, 6-(((2S,3S)-3-aminobutan-2-yl)amino)-5-fluoro-2-((quinolin-6-yl)amino)nicotinamide]
 | < 10 | CCCC[C@@H](Nc1nc(Nc2cnc3cc(OC)ccc3c2)c(C(N)=O)cc1F)[C@H](C)N [Example 006-205, 6-(((2S,3R)-2-aminoheptan-3-yl)amino)-5-fluoro-2-((7-methoxyquinolin-3-yl)amino)nicotinamide]
 | 10 to 50 | C[C@H](Nc1nc(Nc2ccc3ncccc3c2)c(C(N)=O)cc1F)[C@@H](C)N [Example 006-225, 6-(((2S,3R)-3-aminobutan-2-yl)amino)-5-fluoro-2-((quinolin-6-yl)amino)nicotinamide]
 | 10 to 50 | CCC[C@@H](Nc1nc(Nc2cccc3cccnc23)c(C(N)=O)cc1F)[C@H](C)N [Example 006-243, 6-(((2S,3R)-2-aminohexan-3-yl)amino)-5-fluoro-2-((quinolin-8-yl)amino)nicotinamide]
 | 10 to 50 | CCC[C@@H](Nc1nc(Nc2ccc(N3CCOCC3)nc2)c(C(N)=O)cc1F)[C@H](C)N [Example 006-246, 6-(((2S,3R)-2-aminohexan-3-yl)amino)-5-fluoro-2-((6-mopholinopyridin-3-yl)amino)nicotinamide]
 | 10 to 50 | CC[C@@H](Nc1nc(Nc2ccnc(-n3nccn3)c2)c(C(N)=O)cc1F)[C@H](C)N [Example 006-254, 2-((2-(2H-1,2,3-triazol-2-yl)pyridin-4-yl)amino)-6-(((2S,3R)-2-aminopentan-3-yl)amino)-5-fluoronicotinamide]
 | 100 to 1000 | CC[C@@H](Nc1nc(Nc2cnc(OC)c(-n3nccn3)c2)c(C(N)=O)cc1F)[C@H](C)N [Example 006-273, 6-(((2S,3R)-2-aminopentan-3-yl)amino)-5-fluoro-2-((6-methoxy-5-(2H-1,2,3-triazol-2-yl)pyridin-3-yl)amino)nicotinamide]
 | < 10 | CC[C@@H](Nc1nc(Nc2cncc(-c3cc(OC)ccc3F)c2)c(C(N)=O)cc1F)[C@H](C)N [Example 006-280, 6-(((2S,3R)-2-aminopentan-3-yl)amino)-5-fluoro-2-((5-(2-fluoro-5-methoxyphenyl)pyridin-3-yl)amino)nicotinamide]
 | < 10 | COc1cccc(-c2cc(Nc3nc(N[C@@H](CN)CC(C)C)c(F)cc3C(N)=O)ccn2)c1 [Example 006-325, (R)-6-((1-amino-4-methylpentan-2-yl)amino)-5-fluoro-2-((2-(3-methoxyphenyl)pyridin-4-yl)amino)nicotinamide]

— patent US8895585B2, “Nicotinamide derivative or salt thereof” (FUJIFILM Corporation, priority 2010, dated 2014)
